ChEMBL document CHEMBL4665893, “Scalable Synthesis, In Vitro cccDNA Reduction, and In Vivo Antihepatitis B Virus Activity of a Phosphonomethoxydeoxythreosyl Adenine Prodrug” (J Med Chem, 2020)
Calls of active or inactive are those of the source. No cut-off for these calls is given here.

What was measured:
[1] = tested on: Hepatitis B virus; assay: Antiviral activity against ETV-resistant and adenovirus AdH294-7LR harboring wild-type HBV infected in human HepG2 cells assessed as viral replicative intermediate DNA level at 3300 nM incubated for 5 days by Southern blot analysis (reference value: 100%); format: functional; details: time 5 day
[2] = tested on: Hepatitis B virus; assay: Antiviral activity against ETV-resistant and adenovirus AdH294-7LR harboring wild-type HBV infected in human HepG2 cells assessed as viral replicative intermediate DNA level at 13 nM incubated for 5 days by Southern blot analysis (reference value: 100%); format: functional; details: time 5 day
[3] = tested on: Hepatitis B virus; assay: Antiviral activity against ETV-resistant and adenovirus AdH294-7LR harboring wild-type HBV infected in human HepG2 cells assessed as viral replicative intermediate DNA level at 4 nM incubated for 5 days by Southern blot analysis (reference value: 100%); format: functional; details: time 5 day
[4] = tested on: Hepatitis B virus; assay: Antiviral activity against ETV-resistant and adenovirus AdH294-7LR harboring wild-type HBV infected in human HepG2 cells assessed as viral replicative intermediate DNA level at 1100 nM incubated for 5 days by Southern blot analysis (reference value: 100%); format: functional; details: time 5 day
[5] = tested on: Hepatitis B virus; assay: Antiviral activity against ETV-resistant and adenovirus AdH294-7LR harboring wild-type HBV infected in human HepG2 cells assessed as reduction in viral replicative intermediate DNAs up to 100 uM incubated for 5 days by Southern blot analysis; format: functional, organism-based; details: dose microM <=100, time 5.0 day
[6] = tested on: Hepatitis B virus; assay: Antiviral activity against adenovirus AdH294-WT harboring wild-type HBV genotype D accession #V01460 infected in human HepG2 cells assessed as reduction in viral replicative intermediate DNA level at 13 nM incubated for 5 days by Southern blot analysis (reference value: 100%); format: functional; set-up: scale not given: the % may be the effect or the level left; details: time 5 day
[7] = tested on: Hepatitis B virus; assay: Antiviral activity against adenovirus AdH294-WT harboring wild-type HBV genotype D accession #V01460 infected in human HepG2 cells assessed as reduction in viral replicative intermediate DNA level at 40 nM incubated for 5 days by Southern blot analysis (reference value: 100%); format: functional; set-up: scale not given: the % may be the effect or the level left; details: time 5 day
[8] = tested on: Hepatitis B virus; assay: Antiviral activity against adenovirus AdH294-WT harboring wild-type HBV genotype D accession #V01460 infected in human HepG2 cells assessed as reduction in viral replicative intermediate DNA level at 1100 nM incubated for 5 days by Southern blot analysis (reference value: 100%); format: functional; set-up: scale not given: the % may be the effect or the level left; details: time 5 day
[9] = tested on: Hepatitis B virus; assay: Antiviral activity against adenovirus AdH294-WT harboring wild-type HBV genotype D accession #V01460 infected in human HepG2 cells assessed as reduction in viral replicative intermediate DNA level at 120 nM incubated for 5 days by Southern blot analysis (reference value: 100%); format: functional; set-up: scale not given: the % may be the effect or the level left; details: time 5 day
[10] = tested on: Hepatitis B virus; assay: Antiviral activity against ETV-resistant and adenovirus AdH294-7LR harboring wild-type HBV infected in human HepG2 cells assessed as viral replicative intermediate DNA level at 10000 nM incubated for 5 days by Southern blot analysis (reference value: 100%); format: functional; details: time 5 day
[11] = tested on: Hepatitis B virus; assay: Antiviral activity against adenovirus AdH294-WT harboring wild-type HBV genotype D accession #V01460 infected in human HepG2 cells assessed as reduction in viral replicative intermediate DNA level at 370 nM incubated for 5 days by Southern blot analysis (reference value: 100%); format: functional; set-up: scale not given: the % may be the effect or the level left; details: time 5 day
[12] = Toxicity in HBV infected hydrodynamic injection C57BL/6 mouse model assessed as effect on body weight at 0.6 to 60 mg/kg, po QD for 6 days; format: organism-based; details: in vivo, 144 h, dose 0.6-60 mg/kg, time 6 day
[13] = tested on: Hepatitis B virus; assay: Antiviral activity against ETV-resistant and adenovirus AdH294-7LR harboring wild-type HBV infected in human HepG2 cells assessed as viral replicative intermediate DNA level at 40 nM incubated for 5 days by Southern blot analysis (reference value: 100%); format: functional; details: time 5 day
[14] = tested on: Hepatitis B virus; assay: Antiviral activity against adenovirus AdH294-WT harboring wild-type HBV genotype D accession #V01460 infected in human HepG2 cells assessed as reduction in viral replicative intermediate DNA level at 10000 nM incubated for 5 days by Southern blot analysis (reference value: 100%); format: functional; set-up: scale not given: the % may be the effect or the level left; details: time 5 day
[15] = tested on: Hepatitis B virus; assay: Antiviral activity against HBV infected hydrodynamic injection C57BL/6 mouse model assessed as reduction in serum HBV DNA level at 0.6 to 60 mg/kg, po QD for 6 days by qPCR analysis; format: functional, organism-based; details: dose mg/kg 0.6-60, time 6.0 day
[16] = tested on: Hepatitis B virus; assay: Antiviral activity against adenovirus AdH294-WT harboring wild-type HBV genotype D accession #V01460 infected in human HepG2 cells assessed as reduction in viral replicative intermediate DNAs at 4 to 1000 nM incubated for 5 days by Southern blot analysis; format: functional, organism-based; details: time 5.0 day
[17] = tested on: Hepatitis B virus; assay: Antiviral activity against ETV-resistant and adenovirus AdH294-7LR harboring wild-type HBV infected in human HepG2 cells assessed as viral replicative intermediate DNA level at 370 nM incubated for 5 days by Southern blot analysis (reference value: 100%); format: functional; details: time 5 day
[18] = tested on: Hepatitis B virus; assay: Antiviral activity against ETV-resistant and adenovirus AdH294-7LR harboring wild-type HBV infected in human HepG2 cells assessed as viral replicative intermediate DNA level at 120 nM incubated for 5 days by Southern blot analysis (reference value: 100%); format: functional; details: time 5 day
[19] = tested on: Hepatitis B virus; assay: Antiviral activity against adenovirus AdH294-WT harboring wild-type HBV genotype D accession #V01460 infected in human HepG2 cells assessed as reduction in viral replicative intermediate DNA level at 4 nM incubated for 5 days by Southern blot analysis (reference value: 100%); format: functional; set-up: scale not given: the % may be the effect or the level left; details: time 5 day
[20] = tested on: Hepatitis B virus; assay: Antiviral activity against adenovirus AdH294-WT harboring wild-type HBV genotype D accession #V01460 infected in human HepG2 cells assessed as reduction in viral replicative intermediate DNA level at 3300 nM incubated for 5 days by Southern blot analysis (reference value: 100%); format: functional; set-up: scale not given: the % may be the effect or the level left; details: time 5 day
[21] = Toxicity in human HepDE19 cells assessed as reduction in beta-actin level incubated for 9 days by qPCR analysis; format: cell-based; details: time 9 day
[22] = tested on: Hepatitis B virus; assay: Antiviral activity against ETV-resistant and adenovirus AdH294-7LR harboring wild-type HBV infected in human HepG2 cells assessed as reduction in viral replicative intermediate DNAs at 4 to 1000 nM incubated for 5 days by Southern blot analysis; format: functional, organism-based; details: time 5.0 day
[23] = tested on: Hepatitis B virus; assay: Antiviral activity against HBV infected in human HepDE19 cells assessed as reduction in HBV cccDNA incubated for 9 days by qPCR analysis; format: functional, organism-based; details: HepDE19, 216 h
[24] = Selectivity index, […] against HBV infected in human HepDE19 cells to CC50 for toxicity in human HepDE19 cells; format: cell-based; details: read-out: Ratio CC50/IC50

SMILES	Activity [1] [%]	Activity [2] [%]	Activity [3] [%]	Activity [4] [%]	Activity [6] [%]	Activity [7] [%]	Activity [8] [%]	Activity [9] [%]	Activity [10] [%]	Activity [11] [%]	Activity [12]	Activity [13] [%]	Activity [14] [%]	Activity [15]	Activity [17] [%]	Activity [18] [%]	Activity [19] [%]	Activity [20] [%]	other results
C=C1[C@H](CO)[C@@H](O)C[C@@H]1n1cnc2c(=O)[nH]c(N)nc21.O [ENTECAVIR]	35.5	92.2	93.9	51.2	25.7	16	7	13.8	37	10.5	Non-Toxic	98.6	2.9	Dose-dependent effect	60.4	63.8	46.4	4.6	Activity [5]: inactive; Activity [16]: Active
CC(C)OC(=O)[C@H](C)N[P@](=O)(CO[C@H](C)Cn1cnc2c(N)ncnc21)Oc1ccccc1 [TENOFOVIR ALAFENAMIDE]	1.2	38.3	93.7	2.6	40.7	18.1	1.3	10.8	0	4.2	Non-Toxic	21.4	0	Dose-dependent effect	5	11.3	75.6	0	CC50 at 216 h [21]: 500 nM; Activity [22]: Active; IC50 [23]: 40 nM; IC90 ([23]; time 9 day): > 100 nM; selectivity ratio [24]: 13
